Results from ChEMBL document CHEMBL4834488, “Improved Synthesis of New FDA-Approved Treatment for KRAS G12C Mutation in Non-small Cell Lung Cancer” (ACS Med Chem Lett, 2021).

Assay: AUC in non-small-cell lung cancer/colorectal cancer patient serum at 960 mg, po
Assay type: ADME, cell-free
Set-up: dose 960 mg
Details: human

With `C=CC(=O)N1CCN(c2nc(=O)n(-c3c(C)ccnc3C(C)C)c3nc(-c4c(O)cccc4F)c(F)cc23)[C@@H](C)C1` [SOTORASIB] the AUC was 65300 ng·h/mL.
